Measured values: US20150158914A1, “PEPTIDES, CONSTRUCTS AND USES THEREFOR” (priority 2010, published 2015)
Entries after “also recorded” stand apart in the source; their conditions may differ. Ends that are not written are not given here. * marks the point of attachment. FITC = O=C1OC2(c3ccc(O)cc3Oc3cc(O)ccc32)c2ccc(NC(=S)*)cc21

Experiments:
[1] = tested on: X-protein; assay: Non-reducing SDS-PAGE/Western blot of X-protein tertiary structure in HepG2 transfectants; assay type: cell-based, hepatitis B virus; conditions: peptide added thrice over 48 h, non-reducing conditions
Protocol: The inventors investigated how the oligomerization domain peptide (aa 16-35) antagonized X-protein-mediated function. The aim was to determine whether the peptide disrupted the tertiary structure of the X-protein. HepG2 cells were transfected with either the pCDNA3.1-HBX, pCDNA3-HBX Myc or pCDNA3-GFP plasmids and were treated thrice over 48 h with the oligomerization domain peptide (aa 16-35). Control transfectants were not treated with peptide. The nuclear subfraction was resolved by SDS-PAGE using non-reducing loading buffer to keep the disulphide bonding of the X-protein intact. The proteins were transferred onto a PVDF membrane, and probed with a mouse antihuman X-protein primary antibody, followed by a secondary goat anti-mouse HRP-conjugated antibody. […] Transfectants not treated with peptide expressed higher order forms of the X-protein, including the dimeric form at ˜34 kDa, and apparently even higher order structures (FIG. 11). In contrast, cells transfected with pCDNA3.1-HBX and pCDNA3-HBX Myc and treated with the oligomerization domain peptide expressed monomeric forms at ˜17 kDa and ˜21 kDa, respectively.

[2] = tested on: X-protein; assay: X-protein-mediated apoptosis of HepG2 transfectants (annexin-V staining); assay type: cell-based, hepatitis B virus; conditions: 10 μM peptide at 3 h, 3 and 24 h, or 3, 24 and 48 h, 51 h culture, listed as oligomerization domain peptide (aa 16-35)
Protocol: No PSG antibiotic was added to the medium as it can interfere with transfection efficiency. The medium was then removed and replaced with opti-MEM medium without 10% FCS. The amount of plasmid DNA used for transfection was […]. Firstly, 0.2 μg of either pcDNA3.1-HBX or pcDNA3-HBX Myc plasmid DNA was mixed with 25 μl of Opti-MEM medium, and then 0.2 μl of polymag transfection reagent was added (these solutions were prepared as a master mixes—the amounts mentioned are indicative for one well). The mixture was incubated for 20 min and then 25 μl added to the cells. The plate was placed onto a magnetic plate on a rotating platform for 20 min, and then the cells incubated for 3 h.
Cells were transfected with X-protein plasmid vectors as described above. After 3 h of transfection on the magnetic plate, the oligomerization domain peptide aa 16-35 or the control X-protein peptide aa 140-153 were added at a final concentration of 10 μM to the cells in MEM without 10% FCS, and cells incubated for either 3 h, 21 h, or 45 h. Peptides were added to MEM without FCS as serum can rapidly degrade small peptides. […]
A drop of mounting solution with DAPI was added to the cells, and covered with a cover slip. Slides were examined by fluorescence microscopy by using a Nikon E600 fluorescent microscope and photos were taken using Nikon ACT-1 software. […]

[3] = tested on: Rin-m5f pancreatic islet tumor cell line; assay: Peptide uptake by other cell lines; assay type: cell-based, rat; conditions: 3 h
Protocol: (§1) The cells were then incubated overnight at 37° and 5% CO2, and then washed thrice with media without FCS. The X-protein peptide in 250 μl of appropriate media without FCS was added to the cells at a final concentration of 10 μM, and the slides incubated for 3 h at 37° C. and 5% CO2. The cells were washed with PBS, fixed with 4% formaldahyde in PBS for 30 min, and washed thrice with PBS. […] The slides were dried overnight in the dark, and examined by microscopy by using a Nikon E600 fluorescent microscope. Photos were taken using Nikon ACT-1 software. For further examination, slides were then examined by confocal microscopy using a Leica TCS-SP2 confocal microscope.
(§2) The X-protein cell-permeable peptide aa 16-22 was tested for its ability to be taken up by other mammalian cell lines including the human C32 melanoma, DU145 prostate carcinoma, TK1 T cell lymphoma, H441 lung carcinoma, Rin-m5f rat pancreatic islet tumor and Cos-1/7 green monkey kidney cell lines. TK1 cells are suspension cells whereas all other cell lines are adherent cells. Cells were incubated with the fluoresceinated X-protein cell-permeable peptide 16-22 for 3 h in medium appropriate for that cell line in the absence of FCS. The HepG2 cell line was used as a positive control. The X-protein peptide was able enter all adherent cell lines regardless of type or source of the cell (FIGS. 22 and 23).

[4] = tested on: Cos-1 kidney cell line; assay: Peptide uptake by other cell lines; assay type: cell-based, green monkey
Protocol: as §1, §2

[5] = tested on: Cos-7 kidney cell line; assay: Peptide uptake by other cell lines; assay type: cell-based, green monkey
Protocol: as §1, §2

FITC-Acp-LCLRPVGAESRGRPVSGPFG [Peptide 16-35]
overall level of the X-protein [1]: did not decrease the overall level of the X-protein | tertiary structure of the X-protein (dimeric and higher order forms) ([1]; listed as oligomerization domain peptide (aa 16-35)): Disruption of the tertiary structure of the X-protein; also recorded: disrupts the tertiary structure of the X-protein, preventing dimerization and the formation of higher order structures | inhibition of full-length X-protein-mediated apoptosis ([2]; pCDNA3-HBX Myc transfectants): inhibited full-length X-protein-mediated apoptosis of HepG2 cells; also recorded: significantly reduced X-protein-mediated apoptosis in a dose-dependent fashion | inhibition of truncated X-protein-mediated apoptosis ([2]; pCDNA3.1-HBX transfectants): inhibited truncated X-protein-mediated apoptosis of HepG2 cells; also recorded: significantly reduced X-protein-mediated apoptosis in a dose-dependent fashion

FITC-LCLRPVG ({FITC}-LCLRPVG) [Peptide 16-22]
uptake of the peptide, cells positive ([3]; Rin-m5f, no FCS): 60 to 70 % cells positive | entry into cells ([3]; Rinm5f): taken up less efficiently | entry into cells ([4]; COS-1, 3 h): taken up less efficiently | uptake of the peptide, cells positive ([4]; Cos-1, 3 h, no FCS): 60 to 70 % cells positive | entry into cells ([5]; COS-7, 3 h): taken up less efficiently | uptake of the peptide, cells positive ([5]; Cos-7, 3 h, no FCS): 60 to 70 % cells positive
